Measured values: PubChem BioAssay (NCI)
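The compound was tested at five concentrations on cells cultured in 96-well plates, with a 48-hour exposure period. GI50 is the concentration that inhibits growth by half. TGI: concentration producing complete growth inhibition.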

Legend:
Assay in all cases: NCI-60 cell line screen, 48 h
[1] = system: EKVX NSCLC
[2] = system: PC-3 prostate
[3] = system: CCRF-CEM leukemia
[4] = system: HCT-116 colon
[5] = system: SNB-19 CNS
[6] = system: NCI-H23 lung
[7] = system: MALME-3M melanoma
[8] = system: SN12C renal
[9] = system: SF-268 CNS
[10] = system: OVCAR-3 ovarian
[11] = system: NCI-H226 lung
[12] = system: RPMI-8226 leukemia
[13] = system: HOP-92 NSCLC
[14] = system: UACC-257 melanoma
[15] = system: SR leukemia
[16] = system: IGROV1 ovarian
[17] = system: OVCAR-5 ovarian
[18] = system: 786-0 renal
[19] = system: SK-MEL-2 melanoma
[20] = system: CAKI-1 renal
[21] = system: SK-MEL-5 melanoma
[22] = system: UO-31 renal
[23] = system: SK-MEL-28 melanoma
[24] = system: BT-549 breast
[25] = system: LOX IMVI melanoma
[26] = system: NCI-H460 lung
[27] = system: SNB-75 CNS
[28] = system: SK-OV-3 ovarian
[29] = system: KM12 colon
[30] = system: SF-539 CNS
[31] = system: COLO 205 colon
[32] = system: HCC-2998 colon
[33] = system: HCT-15 colon
[34] = system: SW-620 colon
[35] = system: RXF 393 renal
[36] = system: TK-10 renal
[37] = system: T-47D breast
[38] = system: HT29 colon
[39] = system: ACHN renal
[40] = system: U251 CNS
[41] = system: M14 melanoma
[42] = system: K-562 leukemia
[43] = system: MDA-MB-231 breast
[44] = system: MCF7 breast
[45] = system: HL-60(TB) leukemia
[46] = system: OVCAR-8 ovarian
[47] = system: DU-145 prostate
[48] = system: MDA-MB-435
[49] = system: NCI/ADR-RES ovarian
[50] = system: SF-295 CNS
[51] = system: MOLT-4 leukemia
[52] = system: A498 renal
[53] = system: UACC-62 melanoma
[54] = system: OVCAR-4 ovarian
[55] = system: NCI-H522 lung
[56] = system: HS 578T breast
[57] = system: HOP-62 NSCLC
[58] = system: A549 NSCLC

Structure (SMILES): COc1cc(C(=O)/C=C/c2sc(Cl)nc2Cl)cc(OC)c1OC
- GI50 [1]: 1670 nM
- TGI [1]: 3.12 µM
- GI50 [2]: 1800 nM
- TGI [2]: 3.7 µM
- GI50 [3]: 1910 nM
- TGI [3]: 4.95 µM
- GI50 [4]: 1750 nM
- TGI [4]: 3.18 µM
- GI50 [5]: 1720 nM
- TGI [5]: 3.18 µM
- GI50 [6]: 1640 nM
- TGI [6]: 3.04 µM
- GI50 [7]: 1590 nM
- TGI [7]: 3.14 µM
- GI50 [8]: 1740 nM
- TGI [8]: 3.2 µM
- GI50 [9]: 1790 nM
- TGI [9]: 3.77 µM
- GI50 [10]: 1770 nM
- TGI [10]: 3.21 µM
- GI50 [11]: 2400 nM
- TGI [11]: 6.31 µM
- GI50 [12]: 1690 nM
- TGI [12]: 4.57 µM
- GI50 [13]: 1600 nM
- TGI [13]: 3.19 µM
- GI50 [14]: 2010 nM
- TGI [14]: 4.23 µM
- GI50 [15]: 384 nM
- TGI [15]: 3.23 µM
- GI50 [16]: 1680 nM
- TGI [16]: 3.22 µM
- GI50 [17]: 1720 nM
- TGI [17]: 3.27 µM
- GI50 [18]: 1840 nM
- TGI [18]: 3.42 µM
- GI50 [19]: 2390 nM
- TGI [19]: 5.86 µM
- GI50 [20]: 1610 nM
- TGI [20]: 2990 nM
- GI50 [21]: 1950 nM
- TGI [21]: 3.96 µM
- GI50 [22]: 1440 nM
- TGI [22]: 2750 nM
- GI50 [23]: 1780 nM
- TGI [23]: 3.27 µM
- GI50 [24]: 1870 nM
- TGI [24]: 3.6 µM
- GI50 [25]: 1580 nM
- TGI [25]: 2970 nM
- GI50 [26]: 2290 nM
- TGI [26]: 5.29 µM
- GI50 [27]: 1660 nM
- TGI [27]: 3.8 µM
- GI50 [28]: 6.43 µM
- TGI [28]: 19.8 µM
- GI50 [29]: 1920 nM
- TGI [29]: 3.84 µM
- GI50 [30]: 1720 nM
- TGI [30]: 3.12 µM
- GI50 [31]: 1720 nM
- TGI [31]: 3.9 µM
- GI50 [32]: 1800 nM
- TGI [32]: 3.31 µM
- GI50 [33]: 1530 nM
- TGI [33]: 3 µM
- GI50 [34]: 1680 nM
- TGI [34]: 3.45 µM
- GI50 [35]: 1700 nM
- TGI [35]: 3.12 µM
- GI50 [36]: 2060 nM
- TGI [36]: 4.93 µM
- GI50 [37]: 2140 nM
- TGI [37]: 5.35 µM
- GI50 [38]: 2210 nM
- TGI [38]: 5.53 µM
- GI50 [39]: 1740 nM
- TGI [39]: 3.12 µM
- GI50 [40]: 1880 nM
- TGI [40]: 3.69 µM
- GI50 [41]: 1850 nM
- TGI [41]: 3.57 µM
- GI50 [42]: 1840 nM
- TGI [42]: > 100 µM
- GI50 [43]: 1650 nM
- TGI [43]: 3.07 µM
- GI50 [44]: 1780 nM
- TGI [44]: 3.68 µM
- GI50 [45]: 1820 nM
- TGI [45]: 4.45 µM
- GI50 [46]: 1930 nM
- TGI [46]: 3.96 µM
- GI50 [47]: 1800 nM
- TGI [47]: 3.21 µM
- GI50 [48]: 2000 nM
- TGI [48]: 4.11 µM
- GI50 [49]: 1970 nM
- TGI [49]: 4.07 µM
- GI50 [50]: 2090 nM
- TGI [50]: 4.71 µM
- GI50 [51]: 2210 nM
- TGI [51]: 5.49 µM
- GI50 [52]: 7.62 µM
- TGI [52]: 20.5 µM
- GI50 [53]: 1860 nM
- TGI [53]: 3.61 µM
- GI50 [54]: 1770 nM
- TGI [54]: 3.19 µM
- GI50 [55]: 1680 nM
- TGI [55]: 3.96 µM
- GI50 [56]: 2020 nM
- TGI [56]: 5.54 µM
- GI50 [57]: 2290 nM
- TGI [57]: 5.6 µM
- GI50 [58]: 3.18 µM
- TGI [58]: 11.8 µM
